Assay results: patent US20050234076A1, “Triazolopyrimidines” (priority 2002, published 2005)

system: Pyricularia oryzae; experiment: not given; assay type: in vivo; conditions: rice plants, protective spray, 500 g/ha, evaluation 7 days after inoculation; 100% = no infection

Compound | Efficacy in %
Fc1ccc(-c2c(Cl)nc3ncnn3c2N2CCCCO2)c(Cl)c1 [drawing 104] | 100%
Fc1ccc(-c2c(Cl)nc3ncnn3c2N2CCCCO2)c(F)c1 [drawing 105] | 100%
Fc1cccc(Cl)c1-c1c(Cl)nc2ncnn2c1N1CCCCN1 [drawing 106] | 100%

system: Venturia inaequalis; experiment: Venturia Test (apple)/protective; assay type: in vivo; conditions: 240 h, apple plants, protective spray, evaluation 10 days after inoculation, 100% = no infection, read-out: Efficacy in %
Method: Venturia Test (apple)/protective Solvents: 24.5 parts by weight of acetone • 24.5 parts by weight of dimethylacetamide Emulsifier: 1.0 parts by weight alkylaryl polyglycol ether To produce a suitable preparation of active compound, 1 part by weight of active compound is mixed with the stated amounts of solvent and emulsifier, and the concentrate is diluted with water to the desired concentration. To test for protective activity, young plants are sprayed with the preparation of active compound at the stated application rate. […] The plants are then placed in a greenhouse at about 21° C. and a relative atmospheric humidity of about 90%.

Compound | pest or weed control at 100 g/ha
CC1C=CCN(c2c(-c3c(F)cc(F)cc3F)c(Cl)nc3ncnn23)O1 (stereo not shown) [drawing 50] | 100%
Fc1ccc(-c2c(Cl)nc3ncnn3c2N2OC3CCC2C3)c(Cl)c1 (stereo not shown) [drawing 62] | 100%
Fc1cccc(Cl)c1-c1c(Cl)nc2ncnn2c1N1OC2CCC1C2 (stereo not shown) [drawing 58] | 100%
Fc1ccc(-c2c(Cl)nc3ncnn3c2N2CCCCO2)c(Cl)c1 [drawing 47] | 100%
Clc1cccc(Cl)c1-c1c(Cl)nc2ncnn2c1N1CCCCN1 [drawing 64] | 99%
CC1CCCON1c1c(-c2ccccc2Cl)c(Cl)nc2ncnn12 (stereo not shown) [drawing 61] | 99%
Fc1cc(F)c(-c2c(Br)nc3ncnn3c2N2CCCCN2)c(F)c1 [drawing 71] | 93%
Fc1cccc(F)c1-c1c(Cl)nc2ncnn2c1N1CCCCO1 [drawing 57] | 100%
Fc1cc(F)c(-c2c(Cl)nc3ncnn3c2N2OC3CCC2C3)c(C(F)(F)F)c1 (stereo not shown) [drawing 53] | 100%
Fc1ccc(-c2c(Cl)nc3ncnn3c2N2OC3CCC2C3)c(F)c1 (stereo not shown) [drawing 60] | 100%
Clc1ccc(-c2c(Cl)nc3ncnn3c2N2CCCCN2)c(Cl)c1 [drawing 69] | 95%
Fc1cc(C(F)(F)F)cc(F)c1-c1c(Cl)nc2ncnn2c1N1CCCCN1 [drawing 70] | 100%
Fc1cc(F)c(-c2c(Cl)nc3ncnn3c2N2CCCCN2)c(C(F)(F)F)c1 [drawing 68] | 100%
Fc1cccc(Cl)c1-c1c(Cl)nc2ncnn2c1N1NC2CCC1C2 (stereo not shown) [drawing 66] | 100%
Fc1ccc(-c2c(Cl)nc3ncnn3c2N2CCCCO2)c(F)c1 [drawing 48] | 96%
CC1CCON1c1c(-c2c(F)cc(F)cc2F)c(Cl)nc2ncnn12 (stereo not shown) [drawing 55] | 100%
Fc1cc(F)c(-c2c(Cl)nc3ncnn3c2N2NC3CCC2C3)c(F)c1 (stereo not shown) [drawing 65] | 93%
Fc1cc(F)c(-c2c(Cl)nc3ncnn3c2N2Cc3ccccc3CO2)c(F)c1 [drawing 45] | 100%
Fc1cccc(F)c1-c1c(Cl)nc2ncnn2c1N1CCCCN1 [drawing 67] | 96%
Fc1cccc(Cl)c1-c1c(Cl)nc2ncnn2c1N1CCCCN1 [drawing 49] | 100%
CC1CCON1c1c(-c2c(F)cccc2Cl)c(Cl)nc2ncnn12 (stereo not shown) [drawing 59] | 100%

system: Alternaria solani; experiment: Alternaria Test (tomato)/protective; assay type: in vivo; conditions: tomato plants, protective spray, 750 g/ha, evaluation 7 days after inoculation; 100% = no infection
Method: Alternaria Test (tomato)/protective Solvent: 49 parts by weight of N,N-dimethylformamide Emulsifier: 1 part by weight of alkylaryl polyglycol ether To produce a suitable preparation of active compound, 1 part by weight of active compound is mixed with the stated amounts of solvent and emulsifier, and the concentrate is diluted with water to the desired concentration. […] The plants then remain at 96% relative atmospheric humidity and at a temperature of 20° C.

Compound | Efficacy in %
Fc1cc(F)c(-c2c(Cl)nc3ncnn3c2N2Cc3ccccc3CO2)c(F)c1 [drawing 100] | 100%
Fc1cc(F)c(-c2c(Cl)nc3ncnn3c2N2CCC=N2)c(F)c1 [drawing 103] | 95%
Fc1ccc(-c2c(Cl)nc3ncnn3c2N2CCCCO2)c(Cl)c1 [drawing 102] | 100%
Fc1cc(F)c(-c2c(Cl)nc3ncnn3c2N2CCCCO2)c(F)c1 [drawing 101] | 100%
